Where a name gives a salt, the structure may show the parent alone.

The target of the test is T1, human FLT4 (Homo sapiens, UniProt P35916).
T1 construct: a construct expressing the human FLT4 (789-1207) with an amino terminal GST tag; host or cells: Sf9 insect cells (baculovirus)
T1 sequence (P35916 789-1207): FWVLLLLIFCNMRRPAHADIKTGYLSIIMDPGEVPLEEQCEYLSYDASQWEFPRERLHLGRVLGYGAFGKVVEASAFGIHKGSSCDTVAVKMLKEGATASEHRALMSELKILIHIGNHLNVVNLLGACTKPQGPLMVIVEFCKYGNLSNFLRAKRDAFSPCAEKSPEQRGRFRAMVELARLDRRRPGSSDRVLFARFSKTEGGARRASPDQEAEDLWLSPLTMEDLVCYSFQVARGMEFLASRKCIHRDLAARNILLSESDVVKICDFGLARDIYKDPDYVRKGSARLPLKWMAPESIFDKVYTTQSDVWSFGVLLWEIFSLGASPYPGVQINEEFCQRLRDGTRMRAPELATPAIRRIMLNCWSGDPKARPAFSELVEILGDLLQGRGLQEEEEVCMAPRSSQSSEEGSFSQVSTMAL
Kind of test: FLT4 kinase assay (DELFIA enzyme inhibition). In kind it is biochemical. The settings on record: read-out: FLT4 IC50. The method, then: A GST-kinase fusion protein of 70 KDa was produced using sf9 baculovirus expression system, with a construct expressing the human FLT4 (789-1207) with an amino terminal GST tag. The protein was purified by affinity chromatography using glutathione-agarose followed by separation on a gel filtration column.
FLT4 enzyme activity is determined using a Dissociation Enhanced Lanthanide Fluorescent Immunoassay (DELFIA) with a peptide substrate derived from the MET (Tyr 1253) peptide […] with a core sequence […].
The amount of phosphorylated peptide produced is detected by means of a phospho-Tyrosine specific Europium-labelled antibody using Time-Resolved Fluorescence at Excitation 360-35 nm and Emission 620-35 nm.
Assay reactions are set up in a 25 uL final volume on a 96 well plate. […] The reaction is allowed to proceed for 30 minutes at room temperature before stopping with 100 uL Stop solution comprising of 100 mM EDTA, 1×BSA blocker in TBS (Perbio) and 0.05% Surfact-Amps20 (Perbio).
The stopped reaction is transferred to a black 96-well Neutravidin-coated plate (Perbio) and incubated for 30 minutes to capture the biotinylated peptide substrate. After washing wells 3 times with 200 uL TBS/T buffer, Anti-Phospho-Tyr-100 antibody labelled with Eu—N1 (Perkin Elmer AD0159) is added to all wells for 60 minutes at room temperature. After a repeat washing step, DELFIA Enhancement solution (Perkin Elmer) is added to all wells for 5 minutes and the fluorescence measured on a plate reader Analyst HT (Molecular Devices).
The % inhibition of the activity is calculated and plotted in order to determine the concentration of test compound required to inhibit 50% of the enzyme activity (IC50).
With `NC(=O)c1nc(-c2c(F)cccc2F)oc1-c1cccs1` [Example E-1, 2-(2,6-difluorophenyl)-5-(thiophen-2-yl)oxazole-4-carboxamide], the 50% inhibitory concentration (IC50) – broadly, the concentration at which inhibition is half-maximal – is < 10 µM.

As for `NC(=O)c1nc(-c2c(F)cccc2F)oc1-c1ccc(CNC(=O)c2cccs2)cc1` [Example L-3, 2-(2,6-difluorophenyl)-5-(4-((thiophene-2-carboxamido)methyl)phenyl)oxazole-4-carboxamide], the IC50 is < 10 µM.

Regarding `COc1ccc(-c2nc(-c3cc(OC)cc(OC)c3)[nH]c2C(N)=O)cc1` [Example A-17, 2-(3,5-dimethoxyphenyl)-4-(4-methoxyphenyl)-1H-imidazole-5-carboxamide], the half-maximal inhibitory concentration (IC50) was < 100 µM.

With `NC(=O)c1nc(-c2c(F)cccc2F)oc1-c1cccc(CN2CCNCC2)c1` [Example X-3, 2-(2,6-Difluorophenyl)-5-(3-(piperazin-1-ylmethyl)phenyl)oxazole-4-carboxamide formate salt], the half-maximal inhibitory concentration (IC50) was < 100 µM.

For the compound `NC(=O)c1nc(-c2c(F)cccc2F)oc1Nc1ccc(N)cc1` [Example V-1, 5-(4-aminophenylamino)-2-(2,6-difluorophenyl)oxazole-4-carboxamide], the IC50 is < 10 µM.

For `NCC1CN(Cc2cccc(-c3oc(-c4c(F)cccc4F)nc3C(N)=O)c2)CCO1` (centres unmarked) [Example X-4, 5-(3-((2-(Aminomethyl)morpholino)methyl)phenyl)-2-(2,6-difluorophenyl)oxazole-4-carboxamide formate salt], the half-maximal inhibitory concentration (IC50) was < 100 µM.

As to `COc1ccc(-c2nc(-c3ccccc3)[nH]c2C(N)=O)cc1` [Example A-1, 4-(4-methoxyphenyl)-2-phenyl-1H-imidazole-5-carboxamide], the IC50 was < 100 µM.

On to `NC(=O)c1nc(-c2c(F)cccc2F)oc1-c1ccc(N2CCOCC2)cc1` [Example F-4, 2-(2,6-difluorophenyl)-5-(4-morpholinophenyl)oxazole-4-carboxamide], for which the half-maximal inhibitory concentration (IC50) is < 10 µM.

For the compound `COc1ccc(-c2oc(-c3cccs3)nc2C(N)=O)cc1` [Example M-1, 5-(4-methoxyphenyl)-2-(thiophen-2-yl)oxazole-4-carboxamide], the concentration for half-maximal inhibition (IC50) is < 10 µM.

For the compound `NC(=O)c1nc(-c2c(F)cccc2F)oc1-c1ccc2c(c1)OCO2` [Example F-29, 5-(benzo[d][1,3]dioxol-5-yl)-2-(2,6-difluorophenyl)oxazole-4-carboxamide], the 50% inhibitory concentration (IC50) is < 100 µM.

`NC(=O)c1nc(-c2c(F)cccc2F)oc1-c1ccc(CNS(=O)(=O)c2ccccc2)cc1` [Example K-2, 2-(2,6-difluorophenyl)-5-(4-(phenylsulfonamidomethyl)phenyl)oxazole-4-carboxamide]: the IC50 is < 10 µM.

On to `COc1cccc(-c2nc(-c3c(F)cccc3F)[nH]c2C(N)=O)c1` [Example A-20, 2-(2,6-difluorophenyl)-4-(3-methoxyphenyl)-1H-imidazole-5-carboxamide], for which the IC50 was < 100 µM.

With `COc1ccc(-c2oc(-c3c(F)cccc3F)nc2C(N)=O)cc1OC` [Example F-28, 2-(2,6-difluorophenyl)-5-(3,4-dimethoxyphenyl)oxazole-4-carboxamide], the IC50 is < 10 µM.

For the compound `NC(=O)c1nc(-c2c(F)cccc2F)oc1-c1ccc(S(N)(=O)=O)cc1` [Example F-21, 5-(4-benzenesulfonamide)-2-(2,6-difluorophenyl)oxazole-4-carboxamide], the 50% inhibitory concentration (IC50) is < 10 µM.

On to `COc1cc(Nc2oc(-c3c(F)cccc3F)nc2C(N)=O)cc(OC)c1OC` [Example Q-40, 2-(2,6-difluorophenyl)-5-(3,4,5-trimethoxyphenylamino)oxazole-4-carboxamide], for which the IC50 is < 10 µM.

Take `NC(=O)c1nc(-c2c(F)cccc2F)oc1-c1ccc(CN2CCOCC2)cc1` [Example F-20, 2-(2,6-difluorophenyl)-5-(4-(morpholinomethyl)phenyl)oxazole-4-carboxamide]: the IC50 is < 100 µM.

Turning to `NC(=O)c1nc(Nc2cn[nH]c2)oc1-c1ccc(N2CCNCC2)cc1` [Example R-19, 2-(1H-pyrazol-4-ylamino)-5-(4-(piperazin-1-yl)phenyl)oxazole-4-carboxamide], the IC50 was < 10 µM.

Consider `NC(=O)c1[nH]c(-c2c(F)cccc2F)nc1-c1ccccc1` [Example A-19, 2-(2,6-difluorophenyl)-4-phenyl-1H-imidazole-5-carboxamide], for which the IC50 was < 100 µM.

As for `NC(=O)c1nc(-c2c(F)cccc2F)oc1-c1cccc(CN2CCOCC2)c1` [Example X-1, 2-(2,6-Difluorophenyl)-5-(3-(morpholinomethyl)phenyl)oxazole-4-carboxamide], the half-inhibitory concentration (IC50) was < 100 µM.

With `COc1ccc(-c2nc(-c3c(F)cccc3F)oc2C(N)=O)cc1` [Example D-1, 2-(2,6-difluorophenyl)-4-(4-methoxyphenyl)oxazole-5-carboxamide], the IC50 was < 10 µM.

Regarding `COc1ccc(-c2oc(-c3ccsc3)nc2C(N)=O)cc1` [Example M-5, 5-(4-methoxyphenyl)-2-(thiophen-3-yl)oxazole-4-carboxamide], the IC50 was < 10 µM.

On to `CS(=O)(=O)c1ccc(-c2oc(-c3c(F)cccc3F)nc2C(N)=O)cc1` [Example F-6, 2-(2,6-difluorophenyl)-5-(4-(methylsulfonyl)phenyl)oxazole-4-carboxamide], for which the half-maximal inhibitory concentration (IC50) is < 10 µM.

As for `NC(=O)c1nc(-c2c(F)cccc2F)oc1-c1cccc(C(=O)N2CCOCC2)c1` [Example F-30, 2-(2,6-Difluorophenyl)-5-(3-(morpholine-4-carbonyl)phenyl)oxazole-4-carboxamide], the half-inhibitory concentration (IC50) was < 10 µM.

For the compound `COc1ccc(-c2nc(-c3ccc(Br)cc3F)[nH]c2C(N)=O)cc1` [Example A-9, 2-(4-bromo-2-fluorophenyl)-4-(4-methoxyphenyl)-1H-imidazole-5-carboxamide], the 50% inhibitory concentration (IC50) was < 100 µM.

With `NC(=O)c1nc(-c2c(F)cccc2F)oc1-c1ccc(CNS(=O)(=O)c2ccc(F)cc2)cc1` [Example K-1, 2-(2,6-difluorophenyl)-5-(4-((4-fluorophenylsulfonamido)methyl)phenyl)oxazole-4-carboxamide], the IC50 is < 10 µM.

`NC(=O)c1nc(-c2c(F)cccc2F)oc1-c1ccccc1` [Example F-1, 2-(2,6-difluorophenyl)-5-phenyloxazole-4-carboxamide]: the IC50 was < 10 µM.

As to `NC(=O)c1nc(-c2c(F)cccc2F)oc1-c1cccc(CN2CCNC(=O)C2)c1` [Example X-2, 2-(2,6-Difluorophenyl)-5-(3-((3-oxopiperazin-1-yl)methyl)phenyl)oxazole-4-carboxamide], the half-maximal inhibitory concentration (IC50) was < 100 µM.

`NC(=O)c1nc(-c2c(F)cccc2F)oc1-n1cnc2ccccc21` [Example Q-38, 5-(1H-benzo[d]imidazol-1-yl)-2-(2,6-difluorophenyl)oxazole-4-carboxamide]: the half-inhibitory concentration (IC50) was < 10 µM.

With `NC(=O)c1nc(-c2c(F)cccc2F)oc1-c1ccc(CNC(=O)c2ccccc2)cc1` [Example L-1, 5-(4-(benzamidomethyl)phenyl)-2-(2,6-difluorophenyl)oxazole-4-carboxamide], the IC50 is < 10 µM.

Source of the values: patent US9187465B2, “Oxazole tyrosine kinase inhibitors” (Sareum Limited, priority 2007, dated 2015).
